Series [1] is classed as in vitro ADME. As to conditions: liver microsomes.
For series [2] the following is noted: 1% DMSO, nephelometry; for Sol2.0: 0.01 M HCl (approximately pH 2.0); for Sol6.5: pH 6.5 phosphate buffer.
Series [3] concerns S. mansoni. As to conditions: 1 × 100 mg/kg po; ref Keiser et al. 19; 100 mg/kg; cited from earlier work.
Series [4] concerns schistosomula or adult S. mansoni. As to conditions: concentrations up to 170 μM; cited from earlier work.
The subject of another series is AR. As to conditions: cited from earlier work.
The subject of series [5] is androgen-dependent cell line. As to conditions: cited from earlier work.
For series [6] the following is noted: single 1250 mg/kg dose, mice; cited from earlier work.
For series [7] the following is noted: cited from earlier work.
A short description of a further series: physchem. It is filed as physicochemical. As to conditions: pH 7.4.
A further series concerns the target human albumin (Homo sapiens, UniProt P02768). The series is described as follows: in vitro. It is filed as in vitro ADME. As to conditions: plasma, cPPB, estimated from retention on human albumin column.
In series [8] the test system is S. mansoni. In words: S. mansoni in vivo study, worm burden reduction in infected NMRI mice. As to conditions: Schistosoma mansoni, in Mus musculus, po, 504 h, read-out: S. mansoni WBR. On the set-up: species or system Schistosoma mansoni in NMRI mice.
A short description of series [9]: Mouse exposure study after oral administration. It is filed as in vivo, male Swiss outbred mice. As to conditions: male, Swiss outbred, mouse, plasma, po, 100 mg/kg.
Series [10] can be described thus: in vitro. As to conditions: human, microsomes.
A short description of series [11]: in vitro. As to conditions: mouse, microsomes.
Series [12] concerns the target T1, wild-type androgen receptor (AR) in LAPC4 cell line (Homo sapiens, UniProt P10275).
T1 sequence (P10275 1-920): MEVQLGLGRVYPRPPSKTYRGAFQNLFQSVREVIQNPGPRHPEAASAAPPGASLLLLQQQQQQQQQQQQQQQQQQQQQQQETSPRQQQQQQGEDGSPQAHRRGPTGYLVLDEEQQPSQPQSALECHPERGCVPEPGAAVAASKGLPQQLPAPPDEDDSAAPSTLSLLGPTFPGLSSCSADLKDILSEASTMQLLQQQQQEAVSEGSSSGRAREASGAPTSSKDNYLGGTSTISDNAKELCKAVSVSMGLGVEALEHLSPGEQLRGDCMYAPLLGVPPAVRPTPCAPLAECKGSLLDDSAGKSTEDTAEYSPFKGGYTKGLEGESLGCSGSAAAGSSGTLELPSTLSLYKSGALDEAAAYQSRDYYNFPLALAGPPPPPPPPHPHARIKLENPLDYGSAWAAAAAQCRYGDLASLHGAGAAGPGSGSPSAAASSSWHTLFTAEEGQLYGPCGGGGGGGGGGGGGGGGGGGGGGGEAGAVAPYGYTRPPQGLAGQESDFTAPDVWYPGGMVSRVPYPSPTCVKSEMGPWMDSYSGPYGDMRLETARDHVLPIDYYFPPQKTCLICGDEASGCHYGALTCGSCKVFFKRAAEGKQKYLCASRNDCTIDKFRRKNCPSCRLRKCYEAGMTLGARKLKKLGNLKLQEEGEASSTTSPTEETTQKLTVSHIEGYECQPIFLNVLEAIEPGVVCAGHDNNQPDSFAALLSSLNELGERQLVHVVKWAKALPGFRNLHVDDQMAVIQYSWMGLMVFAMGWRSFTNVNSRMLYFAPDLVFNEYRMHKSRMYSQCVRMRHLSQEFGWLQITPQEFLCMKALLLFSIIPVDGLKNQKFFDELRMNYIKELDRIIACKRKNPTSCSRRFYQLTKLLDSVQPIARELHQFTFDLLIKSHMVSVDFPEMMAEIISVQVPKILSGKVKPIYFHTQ
The class given is cell-based.

SMILES strings stand for the structures. Marks after values point to notes of the source that are not given here.

The term pKa denotes the pH at which an ionisable group is half protonated. In general, chromatographic logD refers to lipophilicity estimated from chromatographic retention. Low readings indicate lower lipophilicity, high ones higher lipophilicity. For orientation: fraction unbound means the share of the substance not bound to proteins or other matrix. In general, AUC(0-t) refers to the area under the concentration-time curve up to a stated or last time point. Broadly, the Cmax is the highest concentration seen after dosing. Broadly, the Tmax is the time at which the peak concentration occurs. The microsomal CLint is a measure of how fast metabolising enzymes remove a compound, apart from limits set by blood flow. What is called IC50 is the point on the concentration scale where inhibition reaches its midpoint. Low readings indicate greater potency, high ones weaker potency.

Chain of human albumin (P02768 25-609): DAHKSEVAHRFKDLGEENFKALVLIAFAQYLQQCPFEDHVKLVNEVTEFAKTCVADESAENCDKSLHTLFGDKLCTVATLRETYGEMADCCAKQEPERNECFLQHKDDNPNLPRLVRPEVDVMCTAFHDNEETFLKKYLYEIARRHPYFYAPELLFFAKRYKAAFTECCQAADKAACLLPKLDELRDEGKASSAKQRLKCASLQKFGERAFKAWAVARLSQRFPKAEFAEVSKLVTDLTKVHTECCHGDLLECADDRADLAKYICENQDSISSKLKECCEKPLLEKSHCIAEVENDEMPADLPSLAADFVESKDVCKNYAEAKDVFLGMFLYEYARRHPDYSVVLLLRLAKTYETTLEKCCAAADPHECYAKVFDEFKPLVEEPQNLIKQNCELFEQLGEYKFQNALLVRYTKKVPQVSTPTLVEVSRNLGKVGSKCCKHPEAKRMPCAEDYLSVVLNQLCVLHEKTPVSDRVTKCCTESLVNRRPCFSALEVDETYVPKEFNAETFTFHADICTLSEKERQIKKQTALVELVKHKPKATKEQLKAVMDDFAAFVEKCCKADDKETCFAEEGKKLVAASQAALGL

`CC1(C)NC(=O)N(c2ccc(F)c(C(F)(F)F)c2)C1=O` [Compd 1]: in series [1], the “metabolic stability (in words)” value is on record as “high metabolic stabilities”. In addition, in series [2], the Sol2.0 is >100/>100 μg/mL and the Sol6.5 is listed as >100/>100 μg/mL. Also, the “S. mansoni WBR” value in the series with S. mansoni [3] is listed as 95 ^h %. For the same compound, the “effect on adult S. mansoni in vitro” value in series [4] was “almost no effect”. In the series on AR, the “interaction with the AR in a ligand competition assay” value was “no measurable interaction”. For the same compound, in [5], the DHT-induced cell proliferation result is reported as “did block”. In addition, in [6], the “toxicity after a single dose” value was “no apparent toxicity”. Further, the pKa in [7] is on record as 12.1.

In “physchem”, `CC1NC(=O)N(c2ccc(F)c(C(F)(F)F)c2)C1=O` (stereo not shown) [Compd 23, 3-[4-Fluoro-3-(trifluoromethyl)phenyl]-5-methylimidazolidine-2,4-dione] had a chromatographic logD of 2.4. Besides, the unbound share (fraction unbound) on human albumin is 0.614. In the series with S. mansoni [8], the inhibition in vivo at 100 mg/kg was found to be 66%. In [9], the AUC(0-t) was determined as 163 µM·h, the Cmax came to 26.6 µM and the Tmax amounted to 1 h. Besides, the “metabolic stability (in words)” value in [1] is given as “high metabolic stabilities”. In series [2], the Sol2.0 is >100/>100 μg/mL and the Sol6.5 is >100/>100 μg/mL. The microsomal CLint in “in vitro [10]” stood at 17 µL/min/mg. In “in vitro [11]”, this compound displayed a microsomal CLint of 34 µL/min/mg.

In the case of `O=C1N[C@H](c2ccccc2)C(=O)N1c1ccc(F)c(C(F)(F)F)c1` [Compd 24, (R)-3-[4-Fluoro-3-(trifluoromethyl)phenyl]-5-phenylimidazolidine-2,4-dione], the chromatographic logD in “physchem” was 3.5. The compound also showed an IC50 in series [12] of 5.3 µM. In addition, in the series with S. mansoni [8], the inhibition in vivo at 100 mg/kg turned out to be 41%. Besides, the “metabolic stability (in words)” value in [1] was “decreased the metabolic stabilities”. In series [2], the Sol2.0 was 6.3–12.5/6.3–12.5 μg/mL and the Sol6.5 is given as 6.3–12.5/6.3–12.5 μg/mL. The compound also gave a microsomal CLint in the series “in vitro [10]” of 22 µL/min/mg. In “in vitro [11]”, this compound came in with a microsomal CLint of 181 µL/min/mg.

The values are drawn from publication PMC5150661 (Journal of Medicinal Chemistry, 2016).
